Measured values taken from paper PMC3756528 (Biochemistry, 2013).
Changes are numbered by the printed parent chain. Names and notes keep the numbering of the source.

Columns and labels:
[1] = target: T1, RsTSPO (Cereibacter sphaeroides, UniProt Q9RFC8); assay: Tryptophan fluorescence quenching binding assay, purified wild-type RsTSPO; parameters: species or system Rhodobacter sphaeroides; conditions: for quenching of the tryptophan fluorescence: compared to that of PpIX
T1 sequence (Q9RFC8 1-158): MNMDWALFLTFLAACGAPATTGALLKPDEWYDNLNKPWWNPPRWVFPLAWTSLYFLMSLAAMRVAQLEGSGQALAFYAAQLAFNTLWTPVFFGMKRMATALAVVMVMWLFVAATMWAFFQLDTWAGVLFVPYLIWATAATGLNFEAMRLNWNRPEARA

[2] = target: T2, RsTSPOW38C (Cereibacter sphaeroides, UniProt Q9RFC8, W38C); assay: Tryptophan fluorescence quenching binding assay, purified RsTSPOW38C mutant; parameters: species or system Rhodobacter sphaeroides; conditions: for decrease in binding affinity by the W38C mutation: RsTSPOW38C versus wild-type RsTSPO
T2 sequence (Q9RFC8 1-158 W38C): T1 sequence (Q9RFC8 1-158) with W38C

[3] = target: T1, RsTSPO; conditions: cited from earlier work
[4] = target: T1, RsTSPO; assay: Competition binding assay of PpIX, PK11195 and cholesterol with purified RsTSPO; parameters: species or system Rhodobacter sphaeroides
[5] = target: the molecule itself; assay: SEC

NCC(=O)CCC(=O)O [ALA, δ-aminolevulinic acid]
quenching of the tryptophan fluorescence [1]: only a small quenching

CC(C)CCC[C@@H](C)[C@H]1CC[C@H]2[C@@H]3CC=C4C[C@@H](O)CC[C@]4(C)[C@H]3CC[C@]12C [Cholesterol]
Kd ([2]; Kapp to RsTSPOW38C, estimated from half-maximal quenching): ~200 µM
Kd ([1]; Kapp to RsTSPO, estimated from half-maximal quenching): ~80 µM

CCC(C)N(C)C(=O)c1cc2ccccc2c(-c2ccccc2Cl)n1 (stereo not drawn) [PK11195]
decrease in binding affinity by the W38C mutation [2]: 3 fold
binding of PK11195 to wild-type RsTSPO [3]: no binding affinity above background

C=CC1=C(C)c2cc3[nH]c(cc4nc(cc5[nH]c(cc1n2)c(C)c5CCC(=O)O)C(CCC(=O)O)=C4C)c(C)c3C=C [PpIX, Protoporphyrin IX]
increase in the Kd of PpIX ([4]; RsTSPO preincubated with 20 μM PK11195): ~3 fold
increase in the Kd of PpIX ([4]; RsTSPO preincubated with 20 μM PK11195 and 50 μM cholesterol together): ~4 fold
decrease in binding affinity by the W38C mutation [2]: 6 fold
maximal quenching of tryptophan fluorescence ([1]; Rs- and HsTSPO, 290 to 400 nm): ~100%

C[C@H](CCC(=O)O)[C@H]1CC[C@H]2[C@@H]3[C@@H](O)C[C@@H]4C[C@H](O)CC[C@]4(C)[C@H]3CC[C@]12C [ursodeoxycholate]
affinity for RsTSPO [1]: no detectable affinity
quenching of the tryptophan fluorescence [1]: only a small quenching

B1: RsTSPOW38C, W38C mutant of Translocator Protein 18 kDa from Rhodobacter sphaeroides (natural protein, UniProt Q9RFC8 1-158, looked up)
chain: T1 sequence (Q9RFC8 1-158) with W38C
binding result [5]: binds
